Measurements published in paper PMC2974002 (Journal of medicinal chemistry, 2010).
Like-named read-outs stand apart in the source and are kept apart here.

Tests used:
[1] = Thiol cleavage of prodrugs with BnSH; type: physicochemical
[2] = Stability to BnSH without soluble base; type: physicochemical; settings: for stability to treatment with BnSH: BnSH in THF (72 h, 23 °C) or MeOH (72 h, 23 °C)
[3] = Stability in pH 7.0 phosphate buffer; type: physicochemical; settings: 72 h
[4] = system: L1210 cells; assay: Cell growth inhibition in a cytotoxic assay with L1210 cells; type: cell-based, murine; settings: for decrease in cytotoxic potency relative to 5: ratio to 5
[5] = system: L1210 murine leukemia cells; type: in vivo, DBA/2J mice; settings: i.p. on days 1, 5 and 9; for antitumor activity (in words): compared with free drug 11
[6] = clean release of 11; cited from earlier work
[7] = system: DNA; settings: cell free systems; cited from earlier work

| Molecule | half-life [1] [h] | stability to treatment with BnSH [2] | cleavage in pH 7.0 phosphate buffer [3] | decrease in cytotoxic potency relative to 5 [4] | antitumor activity (in words) [5] | half-life ([1]; BnSH (100 equiv) and NaHCO3 (100 equiv) in MeOH) [h] | half-life in human plasma (t1/2) [6] [h] | DNA alkylation [7] | cleavage by BnSH ([2]; under all conditions examined) | IC50 [4] [nM] | potency of natural (1S)-enantiomer relative to unnatural (1R)-enantiomer [4] | dose of maximal effect ([5]; dose range 10–100 μg/kg) [mg/kg] |
| --- | --- | --- | --- | --- | --- | --- | --- | --- | --- | --- | --- | --- |
| NC(=O)NOc1cc2c(c3ccccc13)C(CCl)CN2C(=O)c1cc2cc(NC(=O)c3cc4ccccc4[nH]3)ccc2[nH]1 (centres unmarked) [compound 3, N-(2-(1-(Chloromethyl)-5-(ureidooxy)-2,3-dihydro-1H-benzo[e]indole-3-carbonyl)-1H-indol-5-yl)-1H-indole-2-carboxamide] | 35 | stable | no significant cleavage | ten times | active, albeit only at higher doses | – | – | – | – | – | – | – |
| COC(=O)NOc1cc2c(c3ccccc13)C(CCl)CN2C(=O)c1cc2cc(NC(=O)c3cc4ccccc4[nH]3)ccc2[nH]1 (centres unmarked) [compound 4, Methyl(3-(5-(1H-indole-2-carboxamido)-1H-indole-2-carbonyl)-1-(chloromethyl)-2,3-dihydro-1H-benzo[e]indol-5-yl)oxycarbamate] | 10 | stable | no significant cleavage | five times | active, albeit only at higher doses | – | – | – | – | – | – | – |
| CC(C)(C)OC(=O)NOc1cc2c(c3ccccc13)C(CCl)CN2C(=O)c1cc2cc(NC(=O)c3cc4ccccc4[nH]3)ccc2[nH]1 (centres unmarked) [compound 5, tert-Butyl(3-(5-(1H-indole-2-carboxamido)-1H-indole-2-carbonyl)-1-(chloromethyl)-2,3-dihydro-1H-benzo[e]indol-5-yl)oxycarbamate] | – | stable | no significant cleavage | – | matched or exceeded the efficacy of the free drug 11 at each dose | 6 | 3 to 6 | incapable of alkylating DNA | – | – | – | – |
| CC(C)(C)C(=O)NOc1cc2c(c3ccccc13)C(CCl)CN2C(=O)c1cc2cc(NC(=O)c3cc4ccccc4[nH]3)ccc2[nH]1 (centres unmarked) [compound 6, N-(2-(1-(Chloromethyl)-5-(pivalamidooxy)-2,3-dihydro-1H-benzo[e]indole-3-carbonyl)-1H-indol-5-yl)-1H-indole-2-carboxamide] | < 0.5 | – | completely cleaved | – | – | – | – | – | rapidly cleaved | – | – | – |
| CN(Oc1cc2c(c3ccccc13)C(CCl)CN2C(=O)c1cc2cc(NC(=O)c3cc4ccccc4[nH]3)ccc2[nH]1)C(=O)OC(C)(C)C (centres unmarked) [compound 8, tert-Butyl(3-(5-(1H-indole-2-carboxamido)-1H-indole-2-carbonyl)-1-(chloromethyl)-2,3-dihydro-1H-benzo[e]indol-5-yl)oxy(methyl)carbamate] | 48 | stable | no significant cleavage | nine-fold | – | – | – | – | – | – | – | – |
| seco-CBI-indole2 [compound 11, reference compound] | – | – | – | – | – | – | – | – | – | 0.03 | ca. 30 fold | 0.06 |
